Experiments:
[1] = tested on: Listeria monocytognes; assay: Growth on MacConkey agar plates (lactose or BMO); assay type: cell-based, Listeria monocytogenes; conditions: sugar in MacConkey medium; BMO 2 g per 100 ml; strain 8
Description: (§1) FIGS. 3A-3B illustrate growth of select pathogens on BMO. […] The Lac operon permease can transport BMO trimers and tetramers. […] BMOs were suspended at 1 gr/10 mL of sterile water, 10 N NaOH was added until the pH was 7. The BMO solution was used in a MacConkey medium to generate agar plates.

[2] = tested on: Vibrio cholerae; assay type: cell-based; conditions: sugar in MacConkey medium; BMO 2 g per 100 ml; strains 10, 11
[3] = tested on: Salmonella typhimurium+lac operon; assay: Growth on MacConkey agar plates (lactose or BMO); assay type: cell-based; conditions: sugar in MacConkey medium; BMO 2 g per 100 ml; strain 5
Description: as §1

[4] = tested on: Yersinia enterocolitica; assay: Growth on MacConkey agar plates (lactose or BMO); assay type: cell-based; conditions: sugar in MacConkey medium; BMO 2 g per 100 ml; strain 9
Description: as §1

[5] = tested on: E. coli K12 (DH5alpha, lac minus); assay: Growth on MacConkey agar plates (lactose or BMO); assay type: cell-based; conditions: sugar in MacConkey medium; BMO 2 g per 100 ml; strain 2
Description: as §1

[6] = tested on: E. coli K12; assay: Growth on MacConkey agar plates (lactose or BMO); assay type: cell-based; conditions: sugar in MacConkey medium; BMO 2 g per 100 ml; strain 1
Description: as §1

[7] = tested on: E. coli O157:H7; assay type: cell-based; conditions: sugar in MacConkey medium; BMO 2 g per 100 ml; strain 3
[8] = tested on: Salmonella typhimurium; assay type: cell-based, Salmonella enterica seovar Typhimurium; conditions: sugar in MacConkey medium; BMO 2 g per 100 ml; strains 4, 6, 7

Compound: OC[C@H]1O[C@@H](O[C@H]2[C@H](O)[C@@H](O)C(O)O[C@@H]2CO)[C@H](O)[C@@H](O)[C@H]1O (some centres unmarked) [Lactose]
- growth on MacConkey agar plate [1]: negative
- growth on MacConkey agar plate [2]: negative
- growth on MacConkey agar plate (red strikes) [3]: growth observed
- growth on MacConkey agar plate [4]: negative
- growth on MacConkey agar plate [5]: negative
- growth on MacConkey agar plate (red strikes) [6]: growth observed
- growth on MacConkey agar plate (red strikes) [7]: growth observed
- growth on MacConkey agar plate [8]: negative

Source: patent US10918653B2, “Bovine milk oligosaccharides” (The Regents of the University of California, priority 2010, dated 2021)
